Patent US20180094248A1, “Necroptosis Signaling as a Therapeutic Target for Alzheimer's Disease” (Arizona Board of Regents on behalf of Arizona State …, priority 2016, published 2018)

Test system: phosphorylated MLKL
Test: Western blot of total and phosphorylated MLKL in primary neurons (NeuN experiment)
Assay type: cell-based, mouse
Protocol: To probe for a direct link between necroptosis and neuronal loss in AD, we plated primary cortical neurons from APP/PS1 and wild type littermate mice. After seven days in vitro (DIV), neurons were treated with 10 μM of the necroptosis inhibitor 7-Cl-O-necrostatin (Nec15) or vehicle. Treatment was repeated at DIV 11. We then fixed neurons at DIV 11 and 15, and stained them for NeuN to count total number of neurons. […] To determine changes in necroptosis, we isolated proteins from neurons of the same four groups and measured the levels of total and phosphorylated MLKL by western blot.
Western blot and ELISA: The proteins were run using reducing conditions in precast gels (Thermo Fisher Scientific) and transferred to nitrocellulose membranes (iBlot, Thermo Fisher Scientific). […] The blots were then washed with TBS-T, and imaged/quantified using a LICOR Odyssey CLx (LI-COR Biosciences) attached to a Dell computer (OptiPlex 7010) running Windows 7 and Image Studio (version 1.0.11, LI-COR Biosciences). […]
Primary neuronal cultures—For the GFP experiments: Primary neurons were isolated from APP/PS1 and NonTg Po pups. […] Neurons were treated for a total of 15 days and the GFP fluorescence was measured every 4 days. […] All fluorescent measurements (excitation 488 nm, emission 509 nm) were performed using the Synergy HT multi-mode microplate reader with the Gen5 software (BioTek, Winooski, Vt.). […]

Compound: CN1C(=O)NC(Cc2c[nH]c3c(Cl)cccc23)C1=O (centres unmarked) [Nec1S, 5-((7-chloro-1 H-indol-3-yl)methyl)-3-methylimidazolidine-2,4-dione]
- pMLKL level (DIV 11, all four groups, NeuN experiment): not detectable
- ratio pMLKL/MLKL (DIV 15, 10 μM, APP/PS1-veh group vs the other three groups incl. APP/PS1-Nec1S): statistically different compared to the other three groups
